Source: US9458137B2, “Substituted indol-5-ol derivatives and their therapeutical applications” (NantBioScience, Inc., priority 2012, dated 2016)

Legend:
Assay in all cases: Kinase panel activity
Type in all cases: biochemical
Conditions in all cases: 0.1 μM, ATP Km
FGFR1(V561M)(h) = target: T1, FGFR1(V561M)(h) (Homo sapiens, UniProt P11362, V561M)
T1 construct: purchased Millipore (KinaseProfiler service)
Method: (§1) The effect of NTW-3475 on kinase activity was tested for a wide range of kinases and is shown in Table 2: Summary Sheet, Activity % ATP Concentration: Km

PKCδ(h) = PKCδ(h) (Homo sapiens, UniProt Q05655)
Method: as §1

PEK(h) = PEK(h) (Homo sapiens, UniProt Q9NZJ5)
Method: as §1

Fes(h) = target: T2, Fes(h) (Homo sapiens, UniProt P07332)
T2 construct: purchased Millipore (KinaseProfiler service)
T2 sequence (P07332 whole entry): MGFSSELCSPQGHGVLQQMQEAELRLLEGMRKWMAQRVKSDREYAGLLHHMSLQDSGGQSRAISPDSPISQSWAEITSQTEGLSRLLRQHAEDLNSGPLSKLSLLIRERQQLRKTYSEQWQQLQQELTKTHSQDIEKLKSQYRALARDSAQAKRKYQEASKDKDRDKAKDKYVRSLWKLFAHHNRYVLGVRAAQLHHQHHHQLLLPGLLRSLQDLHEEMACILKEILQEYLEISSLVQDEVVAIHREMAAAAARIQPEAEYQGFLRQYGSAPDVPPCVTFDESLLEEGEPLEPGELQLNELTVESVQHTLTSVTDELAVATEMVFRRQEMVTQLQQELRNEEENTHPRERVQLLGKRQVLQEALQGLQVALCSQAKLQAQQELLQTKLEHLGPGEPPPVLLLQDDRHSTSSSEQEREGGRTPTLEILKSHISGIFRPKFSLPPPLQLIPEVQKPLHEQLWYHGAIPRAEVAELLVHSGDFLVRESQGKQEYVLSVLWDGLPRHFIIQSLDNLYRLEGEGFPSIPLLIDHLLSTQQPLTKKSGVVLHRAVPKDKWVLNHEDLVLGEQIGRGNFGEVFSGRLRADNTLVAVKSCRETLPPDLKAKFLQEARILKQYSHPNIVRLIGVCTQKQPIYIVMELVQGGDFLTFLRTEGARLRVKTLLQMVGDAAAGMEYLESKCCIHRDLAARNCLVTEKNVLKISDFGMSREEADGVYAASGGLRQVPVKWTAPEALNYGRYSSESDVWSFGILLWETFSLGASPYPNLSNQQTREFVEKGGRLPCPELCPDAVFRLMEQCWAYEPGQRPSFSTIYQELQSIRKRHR
Method: as §1

IGF-1R(h), activated = IGF-1R(h), activated (Homo sapiens, UniProt P08069)
Method: as §1

ErbB4(h) = target: T3, ErbB4(h) (Homo sapiens, UniProt Q15303)
T3 construct: purchased Millipore (KinaseProfiler service)
Method: as §1

Bmx(h) = Bmx(h) (Homo sapiens, UniProt P51813)
Method: as §1

TAO1(h) = target: T4, TAO1(h) (Homo sapiens, UniProt Q7L7X3)
T4 construct: purchased Millipore (KinaseProfiler service)
T4 sequence (Q7L7X3 whole entry): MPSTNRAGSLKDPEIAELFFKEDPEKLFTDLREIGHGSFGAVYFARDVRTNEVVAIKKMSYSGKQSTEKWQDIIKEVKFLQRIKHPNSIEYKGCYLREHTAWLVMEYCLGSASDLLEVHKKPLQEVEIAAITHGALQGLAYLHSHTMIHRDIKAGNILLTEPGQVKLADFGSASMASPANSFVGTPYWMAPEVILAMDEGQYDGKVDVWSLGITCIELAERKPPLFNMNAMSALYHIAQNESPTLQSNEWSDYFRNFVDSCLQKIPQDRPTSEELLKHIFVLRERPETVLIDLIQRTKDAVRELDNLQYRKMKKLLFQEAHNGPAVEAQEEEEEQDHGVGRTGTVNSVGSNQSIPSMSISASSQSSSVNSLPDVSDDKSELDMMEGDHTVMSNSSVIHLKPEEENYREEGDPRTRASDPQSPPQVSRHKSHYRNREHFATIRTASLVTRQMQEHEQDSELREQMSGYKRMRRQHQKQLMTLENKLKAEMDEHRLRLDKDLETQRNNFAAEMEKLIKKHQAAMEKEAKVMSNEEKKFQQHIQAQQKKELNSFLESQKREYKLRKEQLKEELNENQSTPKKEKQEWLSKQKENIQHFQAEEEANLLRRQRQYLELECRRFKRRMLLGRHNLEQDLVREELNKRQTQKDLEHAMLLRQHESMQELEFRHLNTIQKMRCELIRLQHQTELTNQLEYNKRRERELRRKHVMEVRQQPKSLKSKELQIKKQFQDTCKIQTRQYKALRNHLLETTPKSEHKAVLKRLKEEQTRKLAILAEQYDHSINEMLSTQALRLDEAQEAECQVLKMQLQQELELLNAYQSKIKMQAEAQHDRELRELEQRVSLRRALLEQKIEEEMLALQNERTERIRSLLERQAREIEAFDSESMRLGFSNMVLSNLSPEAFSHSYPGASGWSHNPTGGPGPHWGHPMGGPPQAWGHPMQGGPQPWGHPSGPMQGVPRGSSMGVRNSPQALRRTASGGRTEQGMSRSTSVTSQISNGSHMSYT
Method: as §1

Aurora-C(h) = Aurora-C(h) (Homo sapiens, UniProt Q9UQB9)
Aurora-C(h), sequence (Q9UQB9 whole entry): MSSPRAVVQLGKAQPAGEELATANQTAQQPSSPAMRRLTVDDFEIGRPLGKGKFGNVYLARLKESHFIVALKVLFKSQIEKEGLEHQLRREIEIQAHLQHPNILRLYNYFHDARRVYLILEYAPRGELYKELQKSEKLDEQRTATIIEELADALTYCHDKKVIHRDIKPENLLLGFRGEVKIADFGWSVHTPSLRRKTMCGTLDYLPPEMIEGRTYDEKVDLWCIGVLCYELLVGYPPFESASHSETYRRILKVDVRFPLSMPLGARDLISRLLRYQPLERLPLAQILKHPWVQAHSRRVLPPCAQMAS
Method: as §1

Met(Y1248C)(h) = target: T5, Met(Y1248C)(h) (Homo sapiens, UniProt P08581, Y1230C)
T5 construct: purchased Millipore (KinaseProfiler service)
Method: as §1

PRK2(h) = target: T6, PRK2(h) (Homo sapiens, UniProt Q16513)
T6 construct: purchased Millipore (KinaseProfiler service)
Method: as §1

WNK2(h) = WNK2(h) (Homo sapiens, UniProt Q9Y3S1)
Method: as §1

Rsk3(h) = target: T7, Rsk3(h) (Homo sapiens, UniProt Q15349)
T7 construct: purchased Millipore (KinaseProfiler service)
T7 sequence (Q15349 whole entry): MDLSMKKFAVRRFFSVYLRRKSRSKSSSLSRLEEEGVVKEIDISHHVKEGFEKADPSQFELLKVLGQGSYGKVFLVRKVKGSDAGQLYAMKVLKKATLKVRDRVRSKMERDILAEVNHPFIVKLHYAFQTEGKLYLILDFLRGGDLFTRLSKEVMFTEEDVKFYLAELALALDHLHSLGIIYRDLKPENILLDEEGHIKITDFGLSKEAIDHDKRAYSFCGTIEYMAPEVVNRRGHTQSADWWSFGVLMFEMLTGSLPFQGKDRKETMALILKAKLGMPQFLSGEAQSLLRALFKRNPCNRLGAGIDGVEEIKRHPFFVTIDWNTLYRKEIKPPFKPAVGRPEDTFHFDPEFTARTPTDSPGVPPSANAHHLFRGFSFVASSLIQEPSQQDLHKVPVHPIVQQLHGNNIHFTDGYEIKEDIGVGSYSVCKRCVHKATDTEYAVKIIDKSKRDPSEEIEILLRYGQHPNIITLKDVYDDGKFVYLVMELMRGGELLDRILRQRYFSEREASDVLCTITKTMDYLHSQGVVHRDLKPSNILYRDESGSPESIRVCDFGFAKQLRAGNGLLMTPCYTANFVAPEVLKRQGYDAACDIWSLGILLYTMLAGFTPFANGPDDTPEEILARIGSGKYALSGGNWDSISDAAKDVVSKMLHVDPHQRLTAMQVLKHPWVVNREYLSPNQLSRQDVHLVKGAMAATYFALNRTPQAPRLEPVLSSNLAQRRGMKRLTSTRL
Method: as §1

Fyn(h) = Fyn(h) (Homo sapiens, UniProt P06241)
Method: as §1

CaMKIIδ(h) = CaMKIIδ(h) (Homo sapiens, UniProt Q13557)
Method: as §1

CDK3/cyclinE(h) = CDK3/cyclinE(h) (Homo sapiens, UniProt Q00526)
CDK3/cyclinE(h), sequence (Q00526 whole entry): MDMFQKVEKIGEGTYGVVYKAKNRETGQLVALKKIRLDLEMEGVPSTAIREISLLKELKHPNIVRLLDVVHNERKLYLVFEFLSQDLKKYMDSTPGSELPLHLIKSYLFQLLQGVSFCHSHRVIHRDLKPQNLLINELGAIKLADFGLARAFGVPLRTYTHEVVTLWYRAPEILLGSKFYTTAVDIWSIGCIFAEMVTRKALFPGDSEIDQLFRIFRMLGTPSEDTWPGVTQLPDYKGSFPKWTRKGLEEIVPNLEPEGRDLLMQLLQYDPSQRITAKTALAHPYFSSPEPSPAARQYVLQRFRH
CDK3/cyclinE(h), sequence (P24864 whole entry partner): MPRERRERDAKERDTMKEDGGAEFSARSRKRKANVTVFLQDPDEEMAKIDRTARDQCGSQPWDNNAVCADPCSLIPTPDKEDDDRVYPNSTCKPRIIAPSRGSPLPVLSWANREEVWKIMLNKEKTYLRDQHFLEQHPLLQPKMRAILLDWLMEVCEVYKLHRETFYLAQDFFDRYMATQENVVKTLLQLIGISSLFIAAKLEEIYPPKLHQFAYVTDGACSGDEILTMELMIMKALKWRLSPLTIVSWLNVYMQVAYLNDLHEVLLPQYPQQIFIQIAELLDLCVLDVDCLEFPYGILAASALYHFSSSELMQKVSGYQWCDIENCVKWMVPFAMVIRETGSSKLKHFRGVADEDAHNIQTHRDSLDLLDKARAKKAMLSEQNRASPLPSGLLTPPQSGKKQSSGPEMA
Method: as §1

PAK2(h) = PAK2(h) (Homo sapiens, UniProt Q13177)
Method: as §1

PKA(h) = PKA(h) (Homo sapiens, UniProt P17612)
Method: as §1

cKit(V654A)(h) = cKit(V654A)(h) (Homo sapiens, UniProt P10721, V654A)
Method: as §1

JNK2α2(h) = JNK2α2(h) (Homo sapiens, UniProt P45984)
Method: as §1

Rsk2(h) = target: T8, Rsk2(h) (Homo sapiens, UniProt P51812)
T8 construct: purchased Millipore (KinaseProfiler service)
Method: as §1

cKit(h) = cKit(h) (Homo sapiens, UniProt P10721)
Method: as §1

KDR(h) = KDR(h) (Homo sapiens, UniProt P35968)
KDR(h), sequence (P35968 20-1356): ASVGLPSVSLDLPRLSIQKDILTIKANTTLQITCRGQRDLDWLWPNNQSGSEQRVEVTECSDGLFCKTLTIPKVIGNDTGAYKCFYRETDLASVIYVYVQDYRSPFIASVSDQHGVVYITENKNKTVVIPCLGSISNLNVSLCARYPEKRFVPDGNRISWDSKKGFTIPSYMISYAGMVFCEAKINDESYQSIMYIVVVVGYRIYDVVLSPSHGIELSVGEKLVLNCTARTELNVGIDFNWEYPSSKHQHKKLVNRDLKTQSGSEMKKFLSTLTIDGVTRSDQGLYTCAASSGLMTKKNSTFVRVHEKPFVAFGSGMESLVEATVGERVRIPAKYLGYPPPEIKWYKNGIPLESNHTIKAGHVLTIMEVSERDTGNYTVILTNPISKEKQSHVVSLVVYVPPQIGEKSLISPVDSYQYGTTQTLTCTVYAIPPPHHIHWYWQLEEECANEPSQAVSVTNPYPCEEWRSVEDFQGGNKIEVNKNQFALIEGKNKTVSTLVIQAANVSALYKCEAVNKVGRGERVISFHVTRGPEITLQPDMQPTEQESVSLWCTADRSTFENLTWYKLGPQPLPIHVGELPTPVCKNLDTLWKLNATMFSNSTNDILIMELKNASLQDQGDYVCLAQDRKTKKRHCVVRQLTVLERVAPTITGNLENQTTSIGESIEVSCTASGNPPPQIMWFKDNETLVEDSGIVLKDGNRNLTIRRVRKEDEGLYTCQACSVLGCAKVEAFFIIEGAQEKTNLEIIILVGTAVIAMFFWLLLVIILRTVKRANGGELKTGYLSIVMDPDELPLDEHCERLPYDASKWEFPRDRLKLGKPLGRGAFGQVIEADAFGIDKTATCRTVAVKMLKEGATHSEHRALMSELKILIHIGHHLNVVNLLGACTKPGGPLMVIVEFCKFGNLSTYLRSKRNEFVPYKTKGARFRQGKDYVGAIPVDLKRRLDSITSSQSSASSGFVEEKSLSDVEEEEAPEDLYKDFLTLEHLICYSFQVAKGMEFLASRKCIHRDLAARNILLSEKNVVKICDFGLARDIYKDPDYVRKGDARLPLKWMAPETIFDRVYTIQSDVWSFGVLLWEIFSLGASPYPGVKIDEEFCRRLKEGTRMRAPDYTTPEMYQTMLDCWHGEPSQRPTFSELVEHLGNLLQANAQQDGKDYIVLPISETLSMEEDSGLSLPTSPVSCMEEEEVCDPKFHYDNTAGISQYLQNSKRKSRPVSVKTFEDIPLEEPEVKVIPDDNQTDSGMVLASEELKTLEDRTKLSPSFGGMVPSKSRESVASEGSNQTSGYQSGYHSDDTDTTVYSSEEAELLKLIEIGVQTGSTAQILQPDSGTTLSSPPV
Method: as §1

CDK7/cyclinH/MAT1(h) = CDK7/cyclinH/MAT1(h) (Homo sapiens, UniProt P50613)
Method: as §1

PKC ? (h) = PKC ? (h) (Homo sapiens, UniProt Q02156)
Method: as §1

MAPK2(m) = MAPK2(m) (Mus musculus, UniProt P63085)
Method: as §1

CaMKIIγ(h) = CaMKIIγ(h) (Homo sapiens, UniProt Q13555)
Method: as §1

Tie2(R849W)(h) = target: T9, Tie2(R849W)(h) (Homo sapiens, UniProt Q02763, R849W)
T9 construct: purchased Millipore (KinaseProfiler service)
Method: as §1

NEK2(h) = NEK2(h) (Homo sapiens, UniProt P51955)
Method: as §1

PTK5(h) = target: T10, PTK5(h) (Homo sapiens, UniProt P42685)
T10 construct: purchased Millipore (KinaseProfiler service)
Method: as §1

MST1(h) = MST1(h) (Homo sapiens, UniProt Q13043)
Method: as §1

IR(h) = IR(h) (Homo sapiens, UniProt P06213)
Method: as §1

AMPKα1(h) = AMPKα1(h) (Homo sapiens, UniProt Q13131)
Method: as §1

Ab1(H396P)(h) = Ab1(H396P)(h) (Homo sapiens, UniProt P00519, H396P)
Method: as §1

Ab1(Y253F)(h) = Ab1(Y253F)(h) (Homo sapiens, UniProt P00519, Y253F)
Method: as §1

F1t3(D835Y)(h) = F1t3(D835Y)(h) (Homo sapiens, UniProt P36888, D835Y)
Method: as §1

MRCKβ(h) = target: T11, MRCKβ(h) (Homo sapiens, UniProt Q9Y5S2)
T11 construct: purchased Millipore (KinaseProfiler service)
Method: as §1

MAPK2(h) = MAPK2(h) (Homo sapiens, UniProt P28482)
Method: as §1

PDK1(h) = PDK1(h) (Homo sapiens, UniProt O15530)
Method: as §1

Molecule `Cc1cc2c(F)c(Oc3nc(Nc4cc(C5CC5)[nH]n4)cc(N4CCN(C)CC4)n3)cc(F)c2[nH]1` [NTW-3475] has an Activity % (FGFR1(V561M)(h)) of −4%, an Activity % (PKCδ(h)) of 90% and an Activity % (PEK(h)) of 103%. For the same molecule, the Activity % (Fes(h)) was 32%, the Activity % (IGF-1R(h), activated) was 18% and the Activity % (ErbB4(h)) was 90%. For the same molecule, the Activity % (Bmx(h)) was 1%, the Activity % (TAO1(h)) was 65% and the Activity % (Aurora-C(h)) was 21%. For the same molecule, the Activity % (Met(Y1248C)(h)) was 20%, the Activity % (PRK2(h)) was 30% and the Activity % (WNK2(h)) was 99%. It also gave an Activity % (Rsk3(h)) of 25%, an Activity % (Fyn(h)) of 1% and an Activity % (CaMKIIδ(h)) of 98%. It also gave an Activity % (CDK3/cyclinE(h)) of 59%, an Activity % (PAK2(h)) of 65% and an Activity % (PKA(h)) of 111%. For the same molecule, the Activity % (cKit(V654A)(h)) was 32%, the Activity % (JNK2α2(h)) was 107% and the Activity % (Rsk2(h)) was 65%. The Activity % (cKit(h)) was 84%, the Activity % (KDR(h)) was 14% and the Activity % (CDK7/cyclinH/MAT1(h)) was 44%. It also gave an Activity % (PKC ? (h)) of 99%, an Activity % (MAPK2(m)) of 101% and an Activity % (CaMKIIγ(h)) of 87%. The Activity % (Tie2(R849W)(h)) was 6%, the Activity % (NEK2(h)) was 101% and the Activity % (PTK5(h)) was 17%. The Activity % (MST1(h)) was 24%, the Activity % (IR(h)) was 30% and the Activity % (AMPKα1(h)) was 17%. The Activity % (Ab1(H396P)(h)) was −3%, the Activity % (Ab1(Y253F)(h)) was −2% and the Activity % (F1t3(D835Y)(h)) was 0%. It also gave an Activity % (MRCKβ(h)) of 108%, an Activity % (MAPK2(h)) of 105% and an Activity % (PDK1(h)) of 103%.
